± gives the expanded uncertainty stated by the source.
Test: xn = mol fraction of the nth substance listed
Conditions: 101 kPa, Liquid; for viscosity: Concentric cylinders viscometry; for mass density: Vibrating tube method

COC(C)(C)C [2-methoxy-2-methylpropane] + CC(C)O
Conditions | mass density, 303.15 K [kg/m3] | mass density, 308.15 K [kg/m3] | viscosity, 303.15 K [mPa·s] | viscosity, 308.15 K [mPa·s]
x1 = 0.0093 | 776.34 ± 0.23 | 771.97 ± 0.23 | 1.716 ± 0.07 | 1.488 ± 0.061
x1 = 0.0206 | 775.62 ± 0.23 | 771.24 ± 0.23 | 1.661 ± 0.068 | 1.444 ± 0.059
x1 = 0.0305 | 775.01 ± 0.23 | 770.65 ± 0.23 | 1.606 ± 0.066 | 1.399 ± 0.057
x1 = 0.0398 | 774.43 ± 0.23 | 770.06 ± 0.23 | 1.547 ± 0.063 | 1.35 ± 0.055
x1 = 0.0499 | 773.82 ± 0.23 | 769.37 ± 0.23 | 1.496 ± 0.061 | 1.307 ± 0.053
x1 = 0.0601 | 773.15 ± 0.23 | 768.84 ± 0.23 | 1.443 ± 0.059 | 1.264 ± 0.052
x1 = 0.0702 | 772.55 ± 0.23 | 768.22 ± 0.23 | 1.395 ± 0.057 | 1.226 ± 0.05
x1 = 0.0799 | 772 ± 0.23 | 767.62 ± 0.23 | 1.348 ± 0.055 | 1.186 ± 0.049
x1 = 0.0914 | 771.45 ± 0.23 | 766.96 ± 0.23 | 1.299 ± 0.053 | 1.145 ± 0.047
x1 = 0.1009 | 770.89 ± 0.23 | 766.39 ± 0.23 | 1.26 ± 0.051 | 1.112 ± 0.045
x1 = 0.1493 | 768.12 ± 0.23 | 763.55 ± 0.23 | 1.093 ± 0.045 | 0.9806 ± 0.04
x1 = 0.2014 | 765.24 ± 0.23 | 760.59 ± 0.23 | 0.9479 ± 0.039 | 0.8473 ± 0.035
x1 = 0.244 | 762.82 ± 0.23 | 758.12 ± 0.23 | 0.8652 ± 0.035 | 0.7741 ± 0.032
x1 = 0.2863 | 760.69 ± 0.23 | 755.94 ± 0.24 | 0.7635 ± 0.031 | 0.6933 ± 0.029
x1 = 0.3081 | 759.55 ± 0.23 | 754.77 ± 0.24 | 0.7251 ± 0.03 | 0.6588 ± 0.027
x1 = 0.351 | 757.3 ± 0.24 | 752.47 ± 0.24 | 0.6639 ± 0.027 | 0.6054 ± 0.025
x1 = 0.3995 | 754.91 ± 0.24 | 750.02 ± 0.24 | 0.6057 ± 0.025 | 0.5521 ± 0.023
x1 = 0.4516 | 752.43 ± 0.24 | 747.48 ± 0.24 | 0.5514 ± 0.023 | 0.501 ± 0.021
x1 = 0.4999 | 750.22 ± 0.24 | 745.22 ± 0.24 | 0.5139 ± 0.021 | 0.4673 ± 0.019
x1 = 0.5497 | 748.01 ± 0.24 | 742.97 ± 0.24 | 0.4738 ± 0.02 | 0.4345 ± 0.018
x1 = 0.5994 | 745.87 ± 0.24 | 740.79 ± 0.24 | 0.4395 ± 0.018 | 0.4032 ± 0.017
x1 = 0.6493 | 743.75 ± 0.24 | 738.63 ± 0.24 | 0.4129 ± 0.017 | 0.3822 ± 0.016
x1 = 0.6993 | 741.69 ± 0.24 | 736.5 ± 0.24 | 0.3938 ± 0.017 | 0.3678 ± 0.015
x1 = 0.7499 | 739.62 ± 0.24 | 734.4 ± 0.24 | 0.3695 ± 0.015 | 0.3487 ± 0.015
x1 = 0.8015 | 737.6 ± 0.24 | 732.34 ± 0.24 | 0.352 ± 0.015 | 0.3323 ± 0.014
x1 = 0.8509 | 735.7 ± 0.24 | 730.41 ± 0.24 | 0.3397 ± 0.014 | 0.3136 ± 0.013
x1 = 0.8997 | 733.84 ± 0.24 | 728.52 ± 0.24 | 0.3193 ± 0.013 | 0.303 ± 0.013
x1 = 0.9089 | 733.49 ± 0.24 | 728.17 ± 0.24 | 0.3254 ± 0.014 | 0.298 ± 0.013
x1 = 0.9191 | 733.11 ± 0.24 | 727.78 ± 0.24 | 0.3152 ± 0.013 | 0.2968 ± 0.013
x1 = 0.9294 | 732.74 ± 0.24 | 727.41 ± 0.24 | 0.3121 ± 0.013 | 0.2986 ± 0.013
x1 = 0.9401 | 732.34 ± 0.24 | 727.01 ± 0.24 | 0.307 ± 0.013 | 0.293 ± 0.013
x1 = 0.9512 | 731.91 ± 0.24 | 726.58 ± 0.24 | 0.3045 ± 0.013 | 0.2959 ± 0.013
x1 = 0.9587 | 731.64 ± 0.24 | 726.3 ± 0.24 | 0.3021 ± 0.013 | 0.2906 ± 0.013
x1 = 0.97 | 731.24 ± 0.24 | 725.88 ± 0.24 | 0.302 ± 0.013 | 0.2819 ± 0.012
x1 = 0.9777 | 730.94 ± 0.24 | 725.59 ± 0.24 | 0.2983 ± 0.013 | 0.2804 ± 0.012
x1 = 0.9897 | 730.5 ± 0.24 | 725.16 ± 0.24 | 0.2943 ± 0.013 | 0.283 ± 0.012
